For nine compounds, EC50 and IC50 results are on record in patent US11440923B2, “Substituted macrocyclic indole derivatives” (Bayer Aktiengesellschaft, priority 2017, dated 2022).

Counter-ions that a name gives are not always drawn. Like-named read-outs stand apart in the source and are kept apart here.

One assay deals with SUDHL10 cells. In words: Induction of caspase-3/7 activity in SUDHL10 cells (Assay 4). Format: cell-based. In short, it runs like this: (§1)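 Read-out: Caspase-Glo 3/7 luminescence (1 h, 37 °C) after cells, plated overnight, were treated with compounds for 3 h at 37 °C. Signal corrected for cell-free medium background and expressed relative to DMSO control mean.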
The next assay has as its system SUDHL5 cells. Put plainly: Induction of caspase-3/7 activity in SUDHL5 cells (Assay 4). The class given is cell-based. In short, it runs like this:
as §1

In the next assay the target is BCL-2 (Homo sapiens (Human), UniProt P10415). In words: Protein-protein interaction assay BCL-2/Bad BH3 peptide (BCL-2 assay, TR-FRET). The class given is binding. As to conditions: read-out: BCL-2 Assay IC50 (median). In short, it runs like this: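 TR-FRET competition: 665/620 nm emission ratio after 330-350 nm excitation, normalized to DMSO controls and fitted to a 4-parameter model for IC50. Used 1 nM His-BCL-2 (residues 1-211) with 1 nM biotin-Bad BH3 tracer, Tris pH 7 with NaCl, KF, DTT. Compound/protein preincubation 10 min at 22° C. Read after 1 h 22° C plus overnight 4° C.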
Sequence of BCL-2 (P10415 1-211): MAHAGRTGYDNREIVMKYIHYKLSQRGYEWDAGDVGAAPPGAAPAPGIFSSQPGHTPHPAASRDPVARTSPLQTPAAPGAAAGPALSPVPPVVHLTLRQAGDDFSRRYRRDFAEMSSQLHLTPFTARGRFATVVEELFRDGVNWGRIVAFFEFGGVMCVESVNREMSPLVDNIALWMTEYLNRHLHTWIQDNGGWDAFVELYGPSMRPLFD
(Time-resolved FRET reads energy transfer from a long-lived donor to a nearby acceptor.)

A further assay deals with AMO-1 cells. Put plainly: Antiproliferation assay AMO-1 (Assay 7). The class given is cell-based. In outline:
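Growth inhibition is determined from ATP luminescence (CellTiter-Glo) following 72 h incubation with compound. Time-zero cells are measured the same way for baseline, and IC50s are referenced to DMSO controls.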

The mark [1] stands for this setting: caspase-3/7 induction, 3 h; read-out: Caspase SUDHL10 EC50 (median).
Setting [2] is: caspase-3/7 induction, 3 h; read-out: Caspase SUDHL5 EC50 (median).
Setting [3] is: 72 h, CellTiter-Glo; read-out: Antiproli AMO-1 IC50 median.
Setting [4] is: Homo sapiens, SU-DHL10, 3 h, caspase-3/7 induction, 3 h; read-out: Caspase SUDHL10 EC50 (median).
[5] abbreviates: Homo sapiens, SU-DHL-5, 3 h, caspase-3/7 induction, 3 h; read-out: Caspase SUDHL5 EC50 (median).
Setting [6] is: Homo sapiens, AMO1, 72 h, 72 h, CellTiter-Glo; read-out: Antiproli AMO-1 IC50 median.
[7] abbreviates: read-out: Caspase SUDHL10 EC50 (median); caspase-3/7 induction, 3 h.
The mark [8] stands for this setting: read-out: Caspase SUDHL5 EC50 (median); caspase-3/7 induction, 3 h.
Setting [9] is: read-out: Antiproli AMO-1 IC50 median; 72 h, CellTiter-Glo.

Consider `Cc1c2c(nn1C)C(CCN1CCOCC1)OCCCCn1c(C(=O)O)c(CCCOc3cccc4ccccc34)c3ccc(Cl)c-2c31` (single isomer, unassigned; enantiomer 1) [Example 14, 4-chloro-2,3-dimethyl-15-[2-(morpholin-4-yl)ethyl]-7-{3-[(naphthalen-1-yl)oxy]propyl}-2,10,11,12,13,15-hexahydropyrazolo[4′,3′:9,10][1,6]oxazacycloundecino[8,7,6-hi]indole-8-carboxylic Acid (Enantiomer 1)], for which the EC50 (usually the concentration needed to bring the measured effect to its halfway point) in the assay on SUDHL10 cells (setting [1]) worked out at 0.031 µM; in the assay with SUDHL5 cells (setting [2]) it was 0.0098 µM. In addition, the IC50 (usually the concentration needed to halve the response being measured) at BCL-2 was above 20 µM; in the assay with AMO-1 cells (setting [3]), 0.0431 µM.

For `CCc1c2c(nn1C)C(CCO)OCCCCn1c(C(=O)O)c(CCCOc3cccc4cc(F)ccc34)c3ccc(Cl)c-2c31` (single isomer, unassigned; enantiomer 2) [Example 46, (−)-4-chloro-3-ethyl-7-{3-[(6-fluoronaphthalen-1-yl)oxy]propyl}-15-(2-hydroxyethyl)-2-methyl-2,10,11,12,13,15-hexahydropyrazolo[4′,3′:9,10][1,6]oxazacycloundecino[8,7,6-hi]indole-8-carboxylic Acid (Enantiomer 2)], the figures for the EC50 with SUDHL10 cells (setting [1]) and with SUDHL5 cells (setting [2]) were 4 µM and 4.9 µM, respectively. The figures for the IC50 at BCL-2 and with AMO-1 cells (setting [3]) were above 20 µM and 8.65 µM, respectively.

Consider `CCc1c2c(nn1C)C(CC(C)(C)O)OCCCCn1c(C(=O)O)c(CCCOc3cccc4cc(F)ccc34)c3ccc(Cl)c-2c31` (racemic) [Example 52, (rac)-4-chloro-3-ethyl-7-{3-[(6-fluoronaphthalen-1-yl)oxy]propyl}-(15-rac)-(2-hydroxy-2-methylpropyl)-2-methyl-2,10,11,12,13,15-hexahydropyrazolo[4′,3′:9,10][1,6]oxazacycloundecino[8,7,6-hi]indole-8-carboxylic Acid], for which the figures for the EC50 in the assay on SUDHL10 cells (setting [4]) and in the assay with SUDHL5 cells (setting [5]) were 0.16 µM and 0.42 µM, respectively. Further, the IC50 at BCL-2 stood at 15.9 µM; with AMO-1 cells (setting [6]), 0.107 µM.

In the case of `CCc1c2c(nn1C)C(CCN1CCC(F)(F)C1)OCCCCn1c(C(=O)O)c(CCCOc3cccc4cc(F)ccc34)c3ccc(Cl)c-2c31` (single isomer, unassigned; enantiomer 2) [Example 57, 4-chloro-15-[2-(3,3-difluoropyrrolidin-1-yl)ethyl]-3-ethyl-7-{3-[(6-fluoronaphthalen-1-yl)oxy]propyl}-2-methyl-2,10,11,12,13,15-hexahydropyrazolo[4′,3′:9,10][1,6]oxazacycloundecino[8,7,6-hi]indole-8-carboxylic Acid N-ethylethanamine Salt (Enantiomer 2)], the EC50 amounted to 7.7 µM in the assay on SUDHL10 cells (setting [7]) and 7.4 µM in the assay on SUDHL5 cells (setting [8]). Moreover, the figures for the IC50 on BCL-2 and in the assay on AMO-1 cells (setting [9]) were above 20 µM and 4.52 µM, respectively.

As for `Cc1c2c(nn1C)C(CCO)OCCCCn1c(C(=O)O)c(CCCOc3cccc4ccccc34)c3ccc(Cl)c-2c31` (single isomer, unassigned; enantiomer 2) [Example 32, (−)-4-chloro-15-(2-hydroxyethyl)-2,3-dimethyl-7-{3-[(naphthalen-1-yl)oxy]propyl}-2,10,11,12,13,15-hexahydropyrazolo[4′,3′:9,10][1,6]oxazacycloundecino[8,7,6-hi]indole-8-carboxylic Acid (Enantiomer 2)], the EC50 in the assay with SUDHL10 cells (setting [1]) and in the assay with SUDHL5 cells (setting [2]) was above 33 µM in each case. For the same compound, the IC50 is above 20 µM at BCL-2 and 25.6 µM in the assay with AMO-1 cells (setting [3]).

With `CCc1c2c(nn1C)C(CCO)OCCCCn1c(C(=O)O)c(CCCOc3cccc4cc(F)ccc34)c3ccc(Cl)c-2c31` (single isomer, unassigned; enantiomer 1) [Example 45, (+)-4-chloro-3-ethyl-7-{3-[(6-fluoronaphthalen-1-yl)oxy]propyl}-15-(2-hydroxyethyl)-2-methyl-2,10,11,12,13,15-hexahydropyrazolo[4′,3′:9,10][1,6]oxazacycloundecino[8,7,6-hi]indole-8-carboxylic Acid (Enantiomer 1)], the EC50 with SUDHL10 cells (setting [1]) was found to be 0.099 µM; in the assay with SUDHL5 cells (setting [2]), 0.019 µM. Also, the IC50 at BCL-2 was above 20 µM; in the assay with AMO-1 cells (setting [3]), 0.185 µM.

In the case of `CCc1c2c(nn1C)C(CCN1CCOCC1)OCCCCn1c(C(=O)O)c(CCCOc3cccc4cc(F)ccc34)c3ccc(F)c-2c31` (single isomer, unassigned; enantiomer 2) [Example 51, (−)-3-ethyl-4-fluoro-7-{3-[(6-fluoronaphthalen-1-yl)oxy]propyl}-2-methyl-15-[2-(morpholin-4-yl)ethyl]-2,10,11,12,13,15-hexahydropyrazolo[4′,3′:9,10][1,6]oxazacycloundecino[8,7,6-hi]indole-8-carboxylic Acid (Enantiomer 2)], the EC50 with SUDHL10 cells (setting [1]) amounted to 9.8 µM; in the assay with SUDHL5 cells (setting [2]), 5 µM. Also, the values for the concentration for half-maximal inhibition (IC50) on BCL-2 and in the assay with AMO-1 cells (setting [3]) were above 20 µM and 10.8 µM, respectively.

Consider `Cc1c2c(nn1C)C(C1CC1)OCCCCn1c(C(=O)O)c(CCCOc3cccc4ccccc34)c3ccc(Cl)c-2c31` (single isomer, unassigned; enantiomer 2) [Example 36, (−)-4-chloro-15-cyclopropyl-2,3-dimethyl-7-{3-[(naphthalen-1-yl)oxy]propyl}-2,10,11,12,13,15-hexahydropyrazolo[4′,3′:9,10][1,6]oxazacycloundecino[8,7,6-hi]indole-8-carboxylic Acid N-ethylethanamine Salt (Enantiomer 2)], for which the EC50 is 27 µM with SUDHL10 cells (setting [7]) and above 33 µM in the assay on SUDHL5 cells (setting [8]). In addition, the figures for the IC50 on BCL-2 and with AMO-1 cells (setting [9]) were 14.6 µM and 15.8 µM, respectively.

In the case of `Cc1c2c(nn1C)C(CCN1CCOCC1)OCCCCn1c(C(=O)O)c(CCCOc3cccc4cc(F)ccc34)c3ccc(F)c-2c31` (racemic) [Example 19, (rac)-4-fluoro-7-{3-[(6-fluoronaphthalen-1-yl)oxy]propyl}-2,3-dimethyl-15-[2-(morpholin-4-yl)ethyl]-2,10,11,12,13,15-hexahydropyrazolo[4′,3′:9,10][1,6]oxazacycloundecino[8,7,6-hi]indole-8-carboxylic Acid], the EC50 in the assay with SUDHL10 cells (setting [4]) amounted to 0.079 µM; in the assay with SUDHL5 cells (setting [5]) it was 0.073 µM. Moreover, the figures for the IC50 on BCL-2 and in the assay with AMO-1 cells (setting [6]) were above 20 µM and 0.102 µM, respectively.
